Experimental data as given in publication PMC6155576, “Anti-Neuroinflammatory ent-Kaurane Diterpenoids from Pteris multifida Roots” (Molecules : A Journal of Synthetic Chemistry and Natural …, 2016).

What was measured:
[1] = test system: BV-2 cells; assay: Cell viability by MTT assay; type: cell-based, mouse; conditions: BV-2 cells, result in words
Protocol: (§1) The BV-2 mouse microglial cells were generously provided by Dr. Sun Yeou Kim at Kyunghee University (Suwon, Korea). The cells were maintained in DMEM containing 10% FBS with 1% PS at 37 °C in a humidified atmosphere of 95% air and 5% CO2. All tested fractions and samples were dissolved in DMSO (final concentration in cultures ≤0.1%).
(§2) To evaluate NO production, we seeded BV-2 cells in 96-well plates (4 × 10^5 cells/mL) for 24 h and then treated them with various concentrations of the samples for 1 h before exposure to 100 ng/mL of LPS. After the 24 h incubation, the nitrite in the culture media was measured to assess NO production in the BV-2 cells with the Griess reagent (1% sulfanilamide and 0.1% naphtylethylenediamine dihydrochloride in 2% phosphoric acid). In 96-well plates, 100 μL of sample aliquots were mixed with 100 μL of Griess reagent and incubated at room temperature for 15 min. The absorbance at 550 nm was measured on a microplate reader. The concentration was determined with a nitrite standard curve. Cell viability was assessed by the MTT assay. After exposing the cells to 2 mg/mL MTT for 2 h, the absorbance was measured by an ELISA plate reader at 562 nm.

[2] = Cell viability by MTT assay; type: cell-based, mouse; conditions: mouse, BV-2 microglial cells; MTT assay after treatment with 100 μM of each compound for 24 h; mean ± SD
Protocol: as §1, §2

[3] = test system: IL-6; assay: IL-6 ELISA in LPS-activated BV-2 microglia; type: cell-based, mouse; conditions: pre-treatment, dose-dependent, result in words
Protocol: (§3) BV-2 microglial cells were cultured in 96-well plates, preincubated for 30 min. with different concentrations of compounds 1 and 7 and then stimulated for 24 h with LPS (Sigma-Aldrich Co.). Supernatant from the culture (100 μL) was collected to determine the concentration of PGE2, TNF-α, IL-1β, and IL-6, respectively, with ELISA kits (TNF-α, Abcam, Cambridge, MA, USA; PGE2, IL-1β, and IL-6, R&D Systems, Minneapolis, MN, USA).

[4] = test system: IL-1β; assay: IL-1β ELISA in LPS-activated BV-2 microglia; type: cell-based, mouse; conditions: pre-treatment, dose-dependent, result in words
Protocol: as §3

[5] = test system: TNF-α; assay: TNF-α ELISA in LPS-activated BV-2 microglia; type: cell-based, mouse; conditions: pre-treatment, dose-dependent, result in words
Protocol: as §3

[6] = test system: NO production in LPS-activated BV-2 cells; assay: NO production assay (Griess reagent) in LPS-activated BV-2 cells; type: cell-based; conditions: Mus musculus; LPS-stimulated BV-2 cells; samples 1 h before 100 ng/mL LPS, 24 h incubation; read-out: IC50, concentration that caused 50% inhibition of NO production
Protocol: as §1, §2

[7] = test system: PGE2; assay: PGE2 ELISA in LPS-activated BV-2 microglia; type: cell-based, mouse; conditions: pre-treatment, dose-dependent, result in words
Protocol: as §3

[8] = test system: cyclooxygenase-2 (COX-2) protein expression; assay: Western blot of COX-2 expression in LPS-activated BV-2 microglia; type: cell-based, mouse; conditions: result in words
Protocol: Cells were harvested and lysed with radioimmunoprecipitation (RIPA) buffer (Bio-Rad, Hercules, CA USA). Cell lysates were centrifuged, and the supernatant was collected. The protein concentration was determined by protein assay reagents (Bio-Rad). The proteins were separated onto 10% SDS-polyacrylamide gel and transferred to polyvinylidene fluoride (PVDF) membrane. The membranes were blocked with 5% non-fat dry milk in Tris-buffered saline with 0.1% Tween-20 (TBS-T) buffer for 1 h at room temperature and then incubated with primary antibodies in TBS-T buffer containing 1% non-fat dry milk overnight at 4 °C. The membranes were washed with TBS-T buffer and incubated with goat anti-rabbit or anti-mouse horseradish peroxidase-conjugated IgG secondary antibodies from Santa Cruz Biotechnology (Santa Cruz, CA, USA) for 2 h. The membranes were washed with TBS-T buffer, and the antigen-antibody complex was detected with an enhanced chemiluminescence detection system (GE Healthcare, Milwaukee, MI, USA).

| IC50 [6] | SMILES | Cytotoxicity [1] | viability at 24 h, 100 μM [2] | Level of IL-6 [3] | Level of IL-1β [4] | Level of TNF-α [5] | Level of PGE2 [7] | Protein level of COX-2 increased by LPS treatment [8] |
| --- | --- | --- | --- | --- | --- | --- | --- | --- |
| 92 µM | C=C1[C@@H]2CC[C@H]3[C@]4(C)C[C@H](O[C@@H]5O[C@H](CO)[C@@H](O)[C@H](O)[C@H]5O)CC(C)(C)[C@H]4CC[C@]3(C2)[C@H]1O [Compound 2, creticoside A] | – | 95.7 ± 4% | – | – | – | – | – |
| 148 µM | C=C1[C@@H]2CC[C@H]3[C@]4(C)C[C@H](O[C@@H]5O[C@H](CO)[C@@H](O)[C@H](O)[C@H]5O)C[C@](C)(CO)[C@H]4CC[C@]3(C2)[C@H]1O [Compound 4, pterokaurane M1 2-O-β-D-glucopyranoside] | – | 90.5 ± 10.2% | – | – | – | – | – |
| 148 µM | C=C1[C@@H]2CC[C@H]3[C@]4(C)C[C@H](O[C@@H]5O[C@H](CO)[C@@H](O)[C@H](O)[C@H]5O)C[C@@](C)(CO)[C@H]4CC[C@]3(C2)[C@H]1O [Compound 5, 2β,15α,19-trihydroxy-ent-kaur-16-ene 2-O-β-D-gluco-pyranoside] | – | 73.6 ± 2.9% | – | – | – | – | – |
| 101 µM | C=C1[C@@H]2CC[C@H]3[C@]4(C)C[C@H](O[C@@H]5O[C@H](CO)[C@@H](O)[C@H](O)[C@H]5O)CC(C)(C)[C@H]4CC[C@]3([C@@H]2O)[C@H]1O [Compound 8, pterokaurane P1 2-O-β-D-glucopyranoside] | – | 91.7 ± 3.7% | – | – | – | – | – |
| 182 µM | CC1(C)C[C@@H](O[C@@H]2O[C@H](CO)[C@@H](O)[C@H](O)[C@H]2O)C[C@]2(C)[C@@H]1CC[C@@]13C[C@@H](CC[C@H]12)[C@](C)(O[C@@H]1O[C@H](CO)[C@@H](O)[C@H](O)[C@H]1O)C3 [Compound 10, 2β,16α-dihydroxy-ent-kaurane 2,16-di-O-β-D-glucopyranoside] | – | 88.2 ± 8% | – | – | – | – | – |
| 114 µM | CC1(C)C[C@@H](O[C@@H]2O[C@H](CO)[C@@H](O)[C@H](O)[C@H]2O)C[C@]2(C)[C@@H]1CC[C@@]13C[C@@H](CC[C@H]12)[C@@](O)(CO)C3 [Compound 12, 2β,16α,17-trihydroxy-ent-kaurane 2-O-β-D-glucopyranoside] | – | 93.6 ± 8.3% | – | – | – | – | – |
| 53.5 µM | COC(=O)[C@@H](N)CCCNC(N)=N[N+](=O)[O-] [L-NAME, Nω-nitro-L-arginine methyl ester, reference compound] | – | 100 ± 5% | – | – | – | – | – |

| SMILES | IC50 [6] | Cytotoxicity [1] | viability at 24 h, 100 μM [2] | Level of IL-6 [3] | Level of IL-1β [4] | Level of TNF-α [5] | Level of PGE2 [7] | Protein level of COX-2 increased by LPS treatment [8] |
| --- | --- | --- | --- | --- | --- | --- | --- | --- |
| C=C1[C@@H]2CC[C@H]3[C@]4(C)C[C@H](O)CC(C)(C)[C@H]4CC[C@]3(C2)[C@H]1O [Compound 1, 2β,15α-dihydroxy-ent-kaur-16-ene] | 13.9 µM | without any cytotoxicity | 90.7 ± 7.3% | effectively decreased | effectively decreased | effectively decreased | effectively decreased | down-regulated |
| C=C1[C@@H]2CC[C@H]3[C@]4(C)C[C@H](O)C[C@](C)(CO)[C@H]4CC[C@]3(C2)[C@H]1O [Compound 3, pterokaurane M1] | 84 µM | – | 87.7 ± 2.9% | – | – | – | – | – |
| C=C1[C@@H]2CC[C@H]3[C@]4(C)C[C@H](O)CC(C)(C)[C@H]4[C@H](O)C[C@]3(C2)[C@H]1O [Compound 6, 2β,6β,15α-trihydroxy-ent-kaur-16-ene] | 137 µM | – | 85.9 ± 0.1% | – | – | – | – | – |
| C=C1[C@@H]2CC[C@H]3[C@]4(C)C[C@H](O)CC(C)(C)[C@H]4CC[C@]3([C@@H]2O)[C@H]1O [Compound 7, pterokaurane P1] | 10.8 µM | without any cytotoxicity | 88.7 ± 2.4% | effectively decreased | effectively decreased | effectively decreased | effectively decreased | down-regulated |
| CC1(C)C[C@@H](O)C[C@]2(C)[C@@H]1CC[C@@]13C[C@@H](CC[C@H]12)[C@](C)(O)C3 [Compound 9, 2β,16α-dihydroxy-ent-kaurane] | 122 µM | – | 97.5 ± 1.3% | – | – | – | – | – |
| C[C@]1(CO)C[C@@H](O)C[C@]2(C)[C@@H]1CC[C@@]13C[C@@H](CC[C@H]12)[C@](C)(O)C3 [Compound 11, pterokaurane R] | 171 µM | – | 83.2 ± 10.2% | – | – | – | – | – |
